Data published in patent US10477864B2, “Microbiocidal quinoline (thio)carboxamide derivatives” (priority 2016, dated 2019).

How the values were obtained:
Fusarium culmorum [1] = test: whole plant or invertebrate; type: in vivo; conditions: in Triticum aestivum, read-out: control of Fusarium culmorum
[2] = system: Botryotinia fuckeliana (Botrytis cinerea); test: Botryotinia fuckeliana (Botrytis cinerea) / liquid culture (gray mould); type: cell-based; conditions: 72 h, read-out: control of Botryotinia fuckeliana
[3] = system: Monographella nivalis (Microdochium nivale); test: Monographella nivalis (Microdochium nivale) / liquid culture (foot rot cereals); type: cell-based; conditions: 96 h, read-out: control of Monographella nivalis
Fusarium culmorum [4] = test: microbe, parasite or virus in culture; type: cell-based; conditions: read-out: control of Fusarium culmorum
Gaeumannomyces graminis = Gaeumannomyces graminis / liquid culture (take-all of cereals); type: cell-based; conditions: read-out: control of Gaeumannomyces graminis
[5] = system: Glomerella lagenarium (Colletotrichum lagenarium); test: Glomerella lagenarium (Colletotrichum lagenarium) / liquid culture (anthracnose); type: cell-based; conditions: Colletotrichum orbiculare; read-out: control of Glomerella lagenarium
[6] = system: Magnaporthe grisea (Pyricularia oryzae); test: microbe, parasite or virus in culture; type: cell-based; conditions: 72 h, read-out: control of Magnaporthe grisea

| Structure (SMILES) | pest or weed control at 200 ppm (Fusarium culmorum [1]) [%] | inhibition of growth at 200 ppm [2] [%] | inhibition of growth at 200 ppm [3] [%] | inhibition of growth at 200 ppm (Fusarium culmorum [4]) [%] | inhibition of growth at 200 ppm (Gaeumannomyces graminis) [%] | inhibition of growth at 200 ppm [5] [%] | inhibition of growth at 200 ppm [6] [%] | melting point [°C] |
| --- | --- | --- | --- | --- | --- | --- | --- | --- |
| CC(C)C[C@](C)(Cc1ccccc1)NC(=O)c1cnc2ccccc2c1 [Compound F-5, N-[(1R)-1-benzyl-1,3-dimethyl-butyl]quinoline-3-carboxamide] | ≥ 80 | ≥ 80 | ≥ 80 | ≥ 80 | ≥ 80 | ≥ 80 | – | – |
| C=CCC(C)(Cc1ccccc1)NC(=O)c1cnc2ccccc2c1 (centres unmarked) [Compound E-37, N-(1-benzyl-1-methyl-but-3-enyl)quinoline-3-carboxamide] | – | ≥ 80 | ≥ 80 | ≥ 80 | ≥ 80 | ≥ 80 | ≥ 80 | – |
| Cc1cccc2cc(C(=O)NC(CCC(F)(F)F)Cc3ccccc3)cnc12 (centres unmarked) [Compound E-19, N-(1-benzyl-4,4,4-trifluoro-butyl)-8-methyl-quinoline-3-carboxamide] | ≥ 80 | ≥ 80 | – | ≥ 80 | ≥ 80 | – | ≥ 80 | 158 to 161 |
| CC(Cc1ccccc1)(CC(F)(F)F)NC(=O)c1cnc2c(Cl)cccc2c1 (centres unmarked) [Compound E-60, N-(1-benzyl-3,3,3-trifluoro-1-methyl-propyl)-8-chloro-quinoline-3-carboxamide] | ≥ 80 | ≥ 80 | ≥ 80 | ≥ 80 | – | ≥ 80 | ≥ 80 | 141 to 144 |
| Cc1ccc(CC(C)(CC(C)C)NC(=O)c2cnc3c(F)cccc3c2)cc1 (centres unmarked) [Compound E-31, N-[1,3-dimethyl-1-(p-tolylmethyl)butyl]-8-fluoro-quinoline-3-carboxamide] | – | ≥ 80 | ≥ 80 | ≥ 80 | – | ≥ 80 | ≥ 80 | 116 to 118 |
| O=C(NC(Cc1ccccc1)CC(F)(F)F)c1cnc2c(F)cccc2c1 (centres unmarked) [Compound E-30, N-(1-benzyl-3,3,3-trifluoro-propyl)-8-fluoro-quinoline-3-carboxamide] | ≥ 80 | ≥ 80 | ≥ 80 | ≥ 80 | – | ≥ 80 | ≥ 80 | 140 to 142 |
| CC(C)(C)C(Cc1ccccc1)NC(=O)c1cnc2c(F)cccc2c1 (centres unmarked) [Compound E-12, N-(1-benzyl-2,2-dimethyl-propyl)-8-fluoro-quinoline-3-carboxamide] | ≥ 80 | ≥ 80 | ≥ 80 | ≥ 80 | – | ≥ 80 | ≥ 80 | 163 to 164 |
| CC(C)(NC(=O)c1cnc2ccccc2c1)C(C)(C)c1ccccc1F [Compound E-1, N-[2-(2-fluorophenyl)-1,1,2-trimethyl-propyl]quinoline-3-carboxamide] | ≥ 80 | ≥ 80 | ≥ 80 | ≥ 80 | ≥ 80 | ≥ 80 | – | – |
| CC(C)C[C@@H](Cc1ccccc1)NC(=O)c1cnc2c(F)cccc2c1 [Compound F-4, N-[(1S)-1-benzyl-3-methyl-butyl]-8-fluoro-quinoline-3-carboxamide] | ≥ 80 | ≥ 80 | ≥ 80 | ≥ 80 | ≥ 80 | ≥ 80 | – | – |
| CC(C)CC(C)(Cc1cccc(C#N)c1)NC(=O)c1cnc2c(F)cccc2c1 (centres unmarked) [Compound E-46, N-[1-[(3-cyanophenyl)methyl]-1,3-dimethyl-butyl]-8-fluoro-quinoline-3-carboxamide] | – | ≥ 80 | – | ≥ 80 | ≥ 80 | ≥ 80 | ≥ 80 | 45 to 46 |
| CC(C)C[C@](C)(Cc1ccccc1Cl)NC(=O)c1cnc2c(F)cccc2c1 [Compound F-7, N-[(1R)-1-[(2-chlorophenyl)methyl]-1,3-dimethyl-butyl]-8-fluoro-quinoline-3-carboxamide] | – | ≥ 80 | – | ≥ 80 | ≥ 80 | ≥ 80 | – | – |
| CC(C)(C)C[C@@](C)(Cc1ccccc1)NC(=O)c1cnc2c(F)cccc2c1 [Compound F-18, N-[(1S)-1-benzyl-1,3,3-trimethyl-butyl]-8-fluoro-quinoline-3-carboxamide] | ≥ 80 | ≥ 80 | ≥ 80 | ≥ 80 | ≥ 80 | ≥ 80 | – | – |
| O=C(NC(CCC(F)(F)F)Cc1ccccc1)c1cnc2c(Cl)cccc2c1 (centres unmarked) [Compound E-17, N-(1-benzyl-4,4,4-trifluoro-butyl)-8-chloro-quinoline-3-carboxamide] | ≥ 80 | ≥ 80 | – | ≥ 80 | ≥ 80 | – | ≥ 80 | 163 to 167 |
| CC(C)CC(C)(Cc1ccccc1)NC(=O)c1cnc2ccccc2c1 (centres unmarked) [Compound E-13, N-(1-benzyl-1,3-dimethyl-butyl)quinoline-3-carboxamide] | ≥ 80 | ≥ 80 | ≥ 80 | ≥ 80 | ≥ 80 | ≥ 80 | – | – |
| CC(C)C(C)(Cc1ccccc1)NC(=O)c1cnc2c(F)cccc2c1 (centres unmarked) [Compound E-5, N-(1-benzyl-1,2-dimethyl-propyl)-8-fluoro-quinoline-3-carboxamide] | ≥ 80 | ≥ 80 | ≥ 80 | ≥ 80 | – | ≥ 80 | ≥ 80 | – |
| CC(C)CC(C)(Cc1ccccc1)NC(=O)c1cnc2cc(F)ccc2c1 (centres unmarked) [Compound E-40, N-(1-benzyl-1,3-dimethyl-butyl)-7-fluoro-quinoline-3-carboxamide] | – | ≥ 80 | – | ≥ 80 | ≥ 80 | ≥ 80 | ≥ 80 | 142 to 144 |
| CC(C)C[C@@](C)(Cc1ccccc1Cl)NC(=O)c1cnc2c(F)cccc2c1 [Compound F-8, N-[(1S)-1-[(2-chlorophenyl)methyl]-1,3-dimethyl-butyl]-8-fluoro-quinoline-3-carboxamide] | – | ≥ 80 | ≥ 80 | ≥ 80 | ≥ 80 | ≥ 80 | – | – |
| CC(C#N)(Cc1ccc(Cl)cc1)NC(=O)c1cnc2c(F)cccc2c1 (centres unmarked) [Compound E-7, N-[2-(4-chlorophenyl)-1-cyano-1-methyl-ethyl]-8-fluoro-quinoline-3-carboxamide] | – | ≥ 80 | – | ≥ 80 | ≥ 80 | – | – | – |
| Cc1cccc(CC(C)(CC(C)C)NC(=O)c2cnc3c(F)cccc3c2)c1 (centres unmarked) [Compound E-33, N-[1,3-dimethyl-1-(m-tolylmethyl)butyl]-8-fluoro-quinoline-3-carboxamide] | – | ≥ 80 | ≥ 80 | ≥ 80 | – | ≥ 80 | ≥ 80 | 94 to 96 |
| C=CC[C@](C)(Cc1ccccc1)NC(=O)c1cnc2c(F)cccc2c1 [Compound F-16, N-[(1R)-1-benzyl-1-methyl-but-3-enyl]-8-fluoro-quinoline-3-carboxamide] | ≥ 80 | ≥ 80 | – | ≥ 80 | ≥ 80 | ≥ 80 | – | – |
| CC(C)(C)C[C@](C)(Cc1ccccc1)NC(=O)c1cnc2c(F)cccc2c1 [Compound F-17, N-[(1R)-1-benzyl-1,3,3-trimethyl-butyl]-8-fluoro-quinoline-3-carboxamide] | ≥ 80 | ≥ 80 | – | ≥ 80 | ≥ 80 | ≥ 80 | – | – |
| CC(C#N)(Cc1ccccc1)NC(=O)c1cnc2c(F)cccc2c1 (centres unmarked) [Compound E-10, N-(1-cyano-1-methyl-2-phenyl-ethyl)-8-fluoro-quinoline-3-carboxamide] | ≥ 80 | ≥ 80 | – | ≥ 80 | ≥ 80 | – | – | – |
| CC(Cc1ccccc1)(CC1CC1)NC(=O)c1cnc2c(F)cccc2c1 (centres unmarked) [Compound E-49, N-(1-benzyl-2-cyclopropyl-1-methyl-ethyl)-8-fluoro-quinoline-3-carboxamide] | ≥ 80 | ≥ 80 | ≥ 80 | ≥ 80 | – | ≥ 80 | ≥ 80 | – |
| CC(C#N)(Cc1ccc(F)cc1F)NC(=O)c1cnc2c(F)cccc2c1 (centres unmarked) [Compound E-8, N-[1-cyano-2-(2,4-difluorophenyl)-1-methyl-ethyl]-8-fluoro-quinoline-3-carboxamide] | – | ≥ 80 | – | ≥ 80 | ≥ 80 | – | – | – |
